“Also recorded” adds a separate entry of the source.
Key:
[1] = cited from earlier work
adrenal function = assay: Cosyntropin stimulation test at approximately day 75 after transplantation; assay type: in vivo, human; details: 26 of the 30 participants tested in the BDP arm; no systemic glucocorticoid treatment; about day 75
gastrointestinal GVHD = details: oral BDP plus 10 day course of prednisone (1 mg/kg/day) with 7 day taper; grade II gastrointestinal GVHD; cited from earlier work
acute GVHD = assay: Double-blind, randomized placebo-controlled phase II study of prophylactic oral BDP: efficacy and exploratory analyses; assay type: in vivo, human
Excerpt: Patients who had allogeneic hematopoietic cell transplantation with marrow or growth factor-mobilized blood cells from HLA-A, -B, -C, -DRB1, and HLA-DQB1-allele matched or single-allele or antigen mismatched related or unrelated donors after a myeloablative conditioning regimen (>800 cGy total body irradiation [TBI] and cyclophosphamide or high-dose busulfan and cyclophosphamide) were eligible for this study. Patients who had transplantation with cord blood cells and those who were enrolled in studies that involved depletion of T cells from the graft or administration of T cell-depleting antibodies before transplantation were excluded. Patients with body weight <35 kg were also excluded because lower-dose formulations of the study drug were not available. All participants gave informed consent as documents with the use of forms approved by institutional review committees at the Fred Hutchinson Cancer Research Center and Hackensack University Medical Center.
(§1) All participants received a standard regimen of methotrexate and tacrolimus after transplantation as prophylaxis against acute GVHD.[10] Methotrexate was given at 15 mg/m^2 on day 1 after HCT and 10 mg/m^2 on days 3, 6 and 11. […] Administration of the study drug began at the start of the conditioning regimen and continued through day 75 after transplantation. Patients who were not able to ingest the study drug because of mucositis continued their participation in the study. […] Institutional standards were used for antibacterial and antifungal prophylaxis.
The primary pre specified endpoint of the study was development of acute GVHD with severity sufficient to require systemic immunosuppressive treatment on or before day 90 after transplantation such as: a) prednisone or its equivalent at a 1 mg/kg/day, b) systemic immunosuppressive agents other than those in the GVHD prophylactic regimen in lieu of high-dose glucocorticoids, or c) substitution of one calcineurin inhibitor for the other in the GVHD prophylactic regimen in order to treat overt GVHD. The following actions were not considered as an indication of acute GVHD with severity sufficient to require systemic immunosuppressive treatment: a) administration of high-dose glucocorticoids for indications other than acute GVHD, b) substitution of one calcineurin inhibitor for another in the GVHD prophylactic regimen in order to manage toxicity, c) increase in the dose of the calcineurin inhibitor originally prescribed for GVHD prophylaxis in order to suppress overt manifestations of acute GVHD. For purposes of the primary endpoint, extracorporeal photopheresis was considered as systemic immunosuppressive treatment, but administration of psoralen and UV irradiation was not.
In the assessment of the acute GVHD index score, parenteral nutrition was employed as a surrogate for oral caloric intake less than 40% of requirements.
For purposes of sample size estimation, we assumed that 60% of the participants in the placebo arm would require systemic glucocorticoid treatment for acute GVHD. […] Based on historical results from our center, we estimated a frequency of grade IIa GVHD at approximately 25%. […] An interim analysis was conducted after 69 patients were enrolled, with a plan to end the trial if the probability of rejecting the null hypothesis had been less than 33%. This criterion was not met, and the remaining patients were accrued as originally planned.
The primary endpoint was analyzed as a binomial outcome with differences evaluated by the unadjusted x^2 test with stratification according to donor type (related vs. unrelated) and pretransplant risk category (chronic myeloid leukemia in chronic phase, refractory anemia without excess blasts or other hematologic malignancy in remission vs. more advanced malignancy). Other endpoints were evaluated by x^2 test, Student's t-test, Wilcoxon rank sum test or log-rank test as appropriate, with no adjustment to the computed significance level to account for the interim analysis. […]

[2] = Same phase II study: assessment of safety (adverse outcomes, gastrointestinal adverse events, bacteremia, mucositis); assay type: in vivo
Experimental: as §1
The primary endpoint was analyzed as a binomial outcome with differences evaluated by the unadjusted x^2 test with stratification according to donor type (related vs. unrelated) and pretransplant risk category (chronic myeloid leukemia in chronic phase, refractory anemia without excess blasts or other hematologic malignancy in remission vs. more advanced malignancy). Other endpoints were evaluated by x^2 test, Student's t-test, Wilcoxon rank sum test or log-rank test as appropriate, with no adjustment to the computed significance level to account for the interim analysis. Results were analyzed with data available as of Sep. 15, 2010.
These included the hazards of cytomegalovirus and invasive yeast or mold infection, cGVHD, death without recurrent malignancy, recurrent malignancy, death from any cause, and the composite of death or recurrent malignancy. […] Other gastrointestinal adverse events occurred infrequently.
GVHD, bacteremia and recurrent malignancy were the most frequent serious adverse events. Other serious adverse events occurred at frequencies <5%. […] For this reason, we evaluated the distribution of all bacteremia episodes. Because participants took the study drug until day 75 after transplantation and then stopped, we included all bacteremia episodes that occurred before day 103. […] We observed a single episode of Enterococcus bacteremia among the 46 participants in the placebo arm, on day 15 after transplantation.
Time-to-first event analyses were used to evaluate the risks of bacteremia in the BDP arm compared to the placebo arm. Follow-up was censored at 103 days after HCT, 28 days after the end of study drug administration. The hazard ratios were 1.38 (95% CI 0.8-2.5) for any bacteremia, 1.32 (95% CI 0.7-2.5) for gram-positive bacteremia, and 5.24 (95% CI 0.7-41) for Enterococcus bacteremia.
For this reason, we evaluated the severity of mucositis in the two arms for the 118 patients who had evaluations by an oral medicine specialist on at least one occasion after transplantation at the FHCRC.

[3] = BDP >90% adherent group, N = 50
[4] = BDP patients with ≧90% adherence

For `CCC(=O)OCC(=O)[C@@]1(OC(=O)CC)[C@@H](C)C[C@H]2[C@@H]3CCC4=CC(=O)C=C[C@]4(C)[C@@]3(Cl)[C@@H](O)C[C@@]21C` [BDP, beclomethasone 17,21-dipropionate], the Protein binding [1] is listed as “protein-bound”, the Abnormal adrenal function (adrenal function) is listed as 87% and the “Efficacy for treatment of gastrointestinal GVHD in two previous randomized trials” value (gastrointestinal GVHD) is listed as “more effective than prednisone alone; also recorded: effective”. For the same molecule, the “Systemic treatment for GVHD among BDP patients with ≧90% adherence” value (acute GVHD; 50 BDP patients, 27 treated) was 54%, the “Cumulative Prednisone Dose through Day 75 Post HCT” value (acute GVHD; BDP 50-90% adherent, number 34) was 2105 mg and the “Mean of the Average Dose (prednisone) through Day 75 Post HCT” value (from here on “Mean of the Average Dose”) (acute GVHD; BDP 50-90% adherent, number 34) was 28.7 mg. The “Cumulative Prednisone Dose through Day 75 Post HCT” value (acute GVHD; BDP <50% adherent, number 8) was 2048 mg, the “Mean of the Average Dose” value (acute GVHD; BDP <50% adherent, number 8) was 29.2 mg and the “Overall Mortality, N (%)” value (acute GVHD; [3]) was 7 (14) N (%). For the same molecule, the “Relapse, N (%)” value (acute GVHD; [3]) was 9 (18) N (%), the “Cumulative Prednisone Dose through Day 75 Post HCT” value (acute GVHD; BDP >90% adherent, number 50) was 1145 mg and the “Mean of the Average Dose” value (acute GVHD; BDP >90% adherent, number 50) was 15.4 mg. The “BDP >90% adherent group requiring systemic treatment for acute GVHD before day 90, N (%)” value (acute GVHD; BDP N = 50, >90% adherent) was 27 (54) N (%), the “Systemic treatment for acute GVHD before day 90, N (%) PRIMARY ENDPOINT” value (acute GVHD; BDP N = 92, Table 5) was 62 (67) N (%) and the “Gastrointestinal GVHD proven by biopsy, events” value (acute GVHD; BDP arm) was 44. For the same molecule, the “Secondary systemic treatment for GVHD, events” value (acute GVHD; BDP arm) was 8, the “Topical treatment for acute GVHD, events” value (acute GVHD; BDP arm) was 58 and the “Average weekly gut morbidity score (SD)” value (acute GVHD; BDP arm N = 92) was 0.63 (0.36). For the same molecule, the “Average weekly gut morbidity score after day 21 (SD)” value (acute GVHD; BDP arm N = 92) was 0.47 (0.48), the “Average weekly liver morbidity score (SD)” value (acute GVHD; BDP arm N = 92) was 0.11 (0.31) and the “Average weekly overall morbidity score, mean (SD)” value (acute GVHD; BDP arm N = 92) was 1.22 (0.53). The “Average weekly skin morbidity score (SD)” value (acute GVHD; BDP arm N = 92) was 0.30 (0.42), the “Peak GVHD grade 0-1, N (%)” value (acute GVHD; BDP arm N = 92) was 31 (34) N (%) and the “Peak GVHD grade IIa, N (%)” value (acute GVHD; BDP arm N = 92) was 41 (45) N (%). The “Peak GVHD grade IIb-IV, N (%)” value (acute GVHD; BDP arm N = 92) was 20 (22) N (%), the “Peak overall morbidity score, mean (SD)” value (acute GVHD; BDP arm N = 92) was 2.54 (0.62) and the “Systemic treatment for acute GVHD before day 90, N (%)” value (acute GVHD; BDP arm N = 92, Table 2) was 60 (65) N (%). For the same molecule, the “Cumulative mg/kg prednisone-equivalent systemic glucocorticoid dose to day 75, mean (SD)” value (acute GVHD; BDP arm N = 92, for GVHD, not including steroid treatment for other indications) was 33.1 (23.3) mg/kg, the “Systemic treatment for acute GVHD, HR” value (acute GVHD; BDP arm compared to placebo arm, 95% CI 0.6-1.4) was 0.92 and the “Participants given systemic glucocorticoid treatment for GVHD” value (acute GVHD; BDP arm, 60 participants) was 65%. The “Grades IIb-III GVHD” value (acute GVHD; BDP arm, peak OMI scores >20, seven of 36 participants) was 19%, the “Grades IIb-III GVHD” value (acute GVHD; BDP arm, peak OMI scores ≦20, nine of 43 participants) was 21% and the “Cumulative incidence of grades III-IV GVHD” value (acute GVHD; BDP arm, 95% CI 1%-12%) was 7%. For the same molecule, the “Systemic treatment for acute GVHD, events” value (acute GVHD; BDP arm, withdrawal or recurrent malignancy as competing event) was 61, the Incidence of relapse (acute GVHD; [4]) was 18% and the Overall mortality (acute GVHD; [4]) was 14%. For the same molecule, the “Secondary systemic treatment for GVHD, HR” value (acute GVHD; BDP vs placebo, 95% CI 0.2-1.9) was 0.65, the “Topical treatment for acute GVHD, HR” value (acute GVHD; BDP vs placebo, 95% CI 0.6-1.4) was 0.89 and the “Gastrointestinal GVHD proven by biopsy, HR” value (acute GVHD; BDP vs placebo, 95% CI 0.7-2.2) was 1.26. The “Cumulative incidence of grades IIb-IV GVHD” value (acute GVHD; day 100 after transplantation, BDP arm, 95% CI 13%-30%) was 22%, the “Cumulative incidence of grades IIa-IV GVHD” value (acute GVHD; day 100 after transplantation, BDP arm, 95% CI 57%-76%) was 66% and the “Death from any cause, events” value ([2]; BDP arm) was 22. For the same molecule, the “Death or recurrent malignancy, events” value ([2]; BDP arm) was 29, the “Death without recurrent malignancy, events” value ([2]; BDP arm) was 10 and the “Death without recurrent malignancy, HR” value ([2]; BDP vs placebo, 95% CI 0.4-5.8) was 1.60. The “Death or recurrent malignancy, HR” value ([2]; BDP vs placebo, 95% CI 0.5-1.7) was 0.93, the “Death from any cause, HR” value ([2]; BDP vs placebo, 95% CI 0.5-2.0) was 0.95 and the “Participants with Enterococcus bacteremia episodes among those who received total body irradiation” value ([2]; BDP, of the 61 participants (both arms) with total body irradiation) was 9. For the same molecule, the “Participants with Enterococcus bacteremia episodes among those who received busulfan and cyclophosphamide” value ([2]; BDP, of the 77 participants (both arms)) was 1, the “CMV viremia or disease, HR” value ([2]; human, in vivo) was 0.93 and the “CMV viremia or disease, events” value ([2]; human, in vivo) was 23. The “Chronic GVHD requiring systemic treatment, HR” value ([2]; human, in vivo) was 1.05, the “Chronic GVHD requiring systemic treatment, events” value ([2]; human, in vivo) was 31 and the “Colitis, N (%)” value ([2]; human, in vivo) was 0 (0) N (%). The “Enteritis, N (%)” value ([2]; human, in vivo) was 0 (0) N (%), the “Episodes of Enterococcus bacteremia” value ([2]; human, in vivo) was 12 episodes and the “Episodes of Enterococcus bacteremia after day 57” value ([2]; human, in vivo) was 3 episodes. The “Episodes of Enterococcus bacteremia before day 17 after transplantation” value ([2]; human, in vivo) was 9 episodes, the “Episodes of gram-negative bacteremia” value ([2]; human, in vivo) was 15 episodes and the “Esophagitis, N (%)” value ([2]; human, in vivo) was 8 (9) N (%). The “GI hemorrhage, N (%)” value ([2]; human, in vivo) was 2 (2) N (%), the “GI infection (any), N (%)” value ([2]; human, in vivo) was 22 (24) N (%) and the “GI infection: C. difficile, N (%)” value ([2]; human, in vivo) was 16 (17) N (%). For the same molecule, the “GI infection: CMV enteritis, N (%)” value ([2]; human, in vivo) was 2 (2) N (%), the “GI infection: Other viral infection, N (%)” value ([2]; human, in vivo) was 2 (2) N (%) and the “GI infection: Other, N (%)” value ([2]; human, in vivo) was 3 (3) N (%). For the same molecule, the “GI infection: Yeast or mold, N (%)” value ([2]; human, in vivo) was 0 (0) N (%), the “GI ulceration or erosion, N (%)” value ([2]; human, in vivo) was 5 (5) N (%) and the “Gastritis, N (%)” value ([2]; human, in vivo) was 2 (2) N (%). For the same molecule, the “Gastrointestinal ulceration or erosion diagnosed by endoscopy” value ([2]; human, in vivo) was 5 participants, the “Ileus, N (%)” value ([2]; human, in vivo) was 1 (0) N (%) and the “Invasive yeast or mold infection, HR” value ([2]; human, in vivo) was 0.50. For the same molecule, the “Invasive yeast or mold infection, events” value ([2]; human, in vivo) was 1, the “Number of serious adverse events related to bacteremia” value ([2]; human, in vivo) was 14 and the “Number of serious adverse events related to mucositis” value ([2]; human, in vivo) was 5. For the same molecule, the “Participants diagnosed with gastrointestinal infection” value ([2]; human, in vivo) was 24%, the “Recurrent malignancy, HR” value ([2]; human, in vivo) was 0.77 and the “Recurrent malignancy, events” value ([2]; human, in vivo) was 19. For the same molecule, the “Typhlitis, N (%)” value ([2]; human, in vivo) was 1 (1) N (%), the “Oral infection, N (%)” value ([2]; human, in vivo, po) was 3 (3) N (%) and the “Participants with Enterococcus bacteremia” value ([2]; of the 92 participants in the BDP arm, before day 103) was 10 participants.

From patent publication US20140328929A1, “Method of Preventing Acute Graft-Versus-Host Disease using Oral Beclomethasone Dipropionate” (Soligenix, Inc., priority 2011, published 2014)
